# Reference: patent publication US6407103B2, “Indeno [1,2-c] pyrazol-4-ones and their uses” (Bristol-Myers Squibb Pharma Company, priority 1998, dated 2002)
# Structures can show the parent of a compound that is named as a salt.
row,SMILES,melting point [°C]
1,"CN1CCN(C(=O)[C@H]2CC[C@H](c3[nH]nc4c3C(=O)c3c(NC(=O)NN5CCOCC5)cccc3-4)CC2)CC1 (as salt: TFA) [Example CCCIV, 3-(trans-4-(4-methylpiperazinocarbonyl)cyclohexyl)-5-(morpholinocarbamoylamino)indeno[1,2-c]pyrazol-4-one]",228
2,"O=C(Nc1cccc2c1C(=O)c1c-2n[nH]c1C1CCN(C(=O)N2CCNCC2)CC1)NN1CCOCC1 (as salt: TFA) [Example CCLXX, 3-(1-(piperazinocarbonyl)piperidin-4-yl)-5-(morpholinocarbamoylamino)indeno[1,2-c]pyrazol-4-one]",195
3,"COc1ccc(-c2[nH]nc3c2C(=O)c2c(NC(=O)CN4CCC(C(N)=O)CC4)cccc2-3)cc1 [Example LXXII, 3-(4-methoxyphenyl)-5-(4-carbamoylpiperidinoacetamido)indeno[1,2-c]pyrazol-4-one]",> 300
4,"CNC(=O)Nc1cccc2c1C(=O)c1c-2n[nH]c1-c1ccc(OC)cc1 [Example LXV, 3-(4-methoxyphenyl)-5-((methylcarbamoyl)amino)indeno[1,2-c]pyrazol-4-one]",> 300
5,"O=C(Nc1cccc2c1C(=O)c1c-2n[nH]c1-c1ccc(C(=O)N2CCC[C@H]2CO)s1)NN1CCOCC1 (as salt: TFA) [Example CLXXXV, 3-(5-(2(S)-(hydroxymethyl)pyrrolidinocarbonyl)-2-thienyl)-5-(morpholinocarbamoylamino)indeno[1,2-c]pyrazol-4-one]",267
6,"CC(C)(C)OC(=O)NCCCC(=O)N1CCC(c2[nH]nc3c2C(=O)c2c(NC(=O)NN4CCOCC4)cccc2-3)CC1 [Example CCLXXVI, 3-(1-(3-(t-butoxycarbonylamino)propylcarbonyl)piperidin-4-yl)-5-(morpholinocarbamoylamino)indeno[1,2-c]pyrazol-4-one]",73
7,"O=C(Nc1cccc2c1C(=O)c1c-2n[nH]c1-c1ccc(C(=O)NC2CCCCC2)s1)NN1CCOCC1 (as salt: TFA) [Example CLXI, 3-(5-cyclohexylaminocarbonyl-2-thienyl)-5-(morpholinocarbamoylamino)indeno[1,2-c]pyrazol-4-one]",264
8,"NC1CCCC(C(=O)N2CCC(c3[nH]nc4c3C(=O)c3c(NC(=O)NN5CCOCC5)cccc3-4)CC2)C1 (centres unmarked) (as salt: TFA) [Example CCXC, 3-(1-(3-aminocyclohexylcarbonyl)piperidin-4-yl)-5-(morpholinocarbamoylamino)indeno[1,2-c]pyrazol-4-one]",201
9,"CCOC(=O)c1ccc(-c2[nH]nc3c2C(=O)c2c(NC(N)=O)cccc2-3)s1 [Example XCIX, 3-(5-carboethoxy-2-thienyl)-5-(carbamoylamino)indeno[1,2-c]pyrazol-4-one]",> 280
10,"COc1ccc(-c2[nH]nc3c2C(=O)c2c(NC(=O)Cc4ccc(NC(=O)CN(C)C)cc4)cccc2-3)cc1 [Example XXXIX, 3-(4-methoxyphenyl)-5-((4-((N,N-dimethylamino)methylcarbonylamino)phenyl)acetamido) indeno[1,2-c]pyrazol-4-one]",> 300
11,"CCc1[nH]nc2c1C(=O)c1c(NC(N)=O)cccc1-2 [Example XCI, 3-(ethyl)-5-(carbamoylamino)indeno[1,2-c]pyrazol-4-one]",> 250
12,"O=C(Nc1cccc2c1C(=O)c1c-2n[nH]c1-c1ccc(C(=O)NC2CCNCC2)s1)NN1CCOCC1 (as salt: TFA) [Example CLXII, 3-(5-(4-piperidylaminocarbonyl)-2-thienyl)-5-(morpholinocarbamoylamino)indeno[1,2-c]pyrazol-4-one]",224

# The next lines start with the values.
row,melting point [°C],SMILES
1,202,"O=C(Nc1cccc2c1C(=O)c1c-2n[nH]c1-c1ccc(C(=O)N2CCN(c3ccccn3)CC2)s1)NN1CCOCC1 (as salt: TFA) [Example CLV, 3-(5-(4-(2-pyridyl)piperazinocarbonyl)-2-thienyl)-5-(morpholinocarbamoylamino)indeno[1,2-c]pyrazol-4-one]"
2,244,"CN1C[C@@H]2C[C@@]1(C(=O)c1ccc(-c3[nH]nc4c3C(=O)c3c(NC(=O)NN5CCOCC5)cccc3-4)s1)CN2 (as salt: TFA) [Example CLVII, 3-(5-(((1S,4S)-(+)-2-methyl-2,5-diazabicyclo[2.2.1]heptyl)carbonyl)-2-thienyl)-5-(morpholinocarbamoylamino)indeno[1,2-c]pyrazol-4-one]"
3,> 280,"Cc1cc(-c2[nH]nc3c2C(=O)c2c(NC(N)=O)cccc2-3)c(C)s1 [Example CII, 3-(2,5-dimethyl-3-thienyl)-5-(carbamoylamino)indeno[1,2-c]pyrazol-4-one]"
4,> 300,"COC[C@H]1CCCN1NC(=O)Nc1cccc2c1C(=O)c1c-2n[nH]c1-c1ccc(C(=O)N2CCNCC2)s1 (as salt: TFA) [Example CCIV, 3-(5-piperazinocarbonyl-2-thienyl)-5-(2(R)-(methoxymethyl)pyrrolidinocarbamoylamino)indeno[1,2-c]pyrazol-4-one]"
5,189,"CN(C)c1ccc(C(=O)N2CCC(c3[nH]nc4c3C(=O)c3c(NC(=O)NN5CCOCC5)cccc3-4)CC2)cc1 (as salt: TFA) [Example CCXCVIII, 3-(1-(4-(dimethylamino)phenylcarbonyl)piperidin-4-yl)-5-(morpholinocarbamoylamino)indeno[1,2-c]pyrazol-4-one]"
6,245,"CN1CCN(c2ccc(-c3[nH]nc4c3C(=O)c3c(NC(=O)NN5CCOCC5)cccc3-4)cc2)CC1 (as salt: TFA) [Example CCXVIII, 3-(4-(4-methylpiperazino)phenyl)-5-(morpholinocarbamoylamino)indeno[1,2-c]pyrazol-4-one]"
7,257,"COC(=O)Nc1ccc(CC(=O)Nc2cccc3c2C(=O)c2c-3n[nH]c2-c2ccc(OC)cc2)cc1 [Example XXXVII, 3-(4-methoxyphenyl)-5-((4-(methoxycarbonylamino)phenyl)acetamido) indeno[1,2-c]pyrazol-4-one]"
8,211,"O=C(Nc1cccc2c1C(=O)c1c-2n[nH]c1-c1ccc(C(=O)N2CCN(CC3CC3)CC2)s1)NN1CCOCC1 (as salt: TFA) [Example CLIII, 3-(5-(4-(cyclopropylmethyl)piperazinocarbonyl)-2-thienyl)-5-(morpholinocarbamoylamino)indeno[1,2-c]pyrazol-4-one]"
9,294,"CCc1ccc(-c2[nH]nc3c2C(=O)c2c(NC(C)=O)cccc2-3)cc1 [Example LXI, 3-(4-ethylphenyl)-5-(acetamido)indeno[1,2-c]pyrazol-4-one]"
10,> 300,"CN1CCN(NC(=O)Nc2cccc3c2C(=O)c2c-3n[nH]c2-c2ccc(N(C)C)cc2)CC1 [Example LXXXV, 3-(4-(N,N-dimethylamino)phenyl)-5-(4-methylpiperazinocarbamoylamino)indeno[1,2-c]pyrazol-4-one]"
11,272,"CC(C)N1CCN(c2ccc(-c3[nH]nc4c3C(=O)c3c(NC(=O)NN5CCN(C)CC5)cccc3-4)cc2)CC1 (as salt: TFA) [Example CCXXVI, 3-(4-(4-isopropylpiperazino)phenyl)-5-((4-methylpiperazino)carbamoylamino)indeno[1,2-c]pyrazol-4-one]"
